“And” between values parts separate entries of the source, which are not always exact repeats. Equal entries are not always repeated. Where two headings read alike, the source gives them in different places.
Tests used:
CEM/dCK- = assay: MMT or WST-1 assay at 72 hr; type: cell-based; details: CEM/dCK- versus CCRF-CEM
[1] = 3H-Thymidine Incorporation Assay (24 hr drug, wash, another 48 hr; 72 hr assay); type: cell-based; details: for Factor (Resistance Factor = Ratio of dCK- on Wild-type CCRF-CEM) / Resistance Factor = Ratio of dCK- on Wild-type CCRF-CEM: ratio of IC50 CEM/dCK- to IC50 CCRF-CEM; for Factor (Resistance Factor = Ratio of dCK- on Wild-type CCRF-CEM): 24 h exposure
[2] = CCRF-CEM, read-out: IC50 (3H-TdR incorporation at 72 hr) CCRF-CEM 24 h, CCRF-CEM T-cell leukemia, 24 hr exposure to drug, wash, another 48 hr
[3] = CCRF-CEM, read-out: IC50 (3H-TdR incorporation at 72 hr) CEM/dCK- 24 h, CEM/dCK- (CCRF-CEM deoxycytidine kinase-deficient), 24 hr exposure to drug, wash, another 48 hr
[4] = MCF7, read-out: IC50 (3H-TdR incorporation at 72 hr) MCF-7 24 h, MCF-7 human breast carcinoma, 24 hr exposure to drug, wash, another 48 hr
[5] = NCI-H460, read-out: IC50 (3H-TdR incorporation at 72 hr) H-460 24 h, H-460 human lung carcinoma, 24 hr exposure to drug, wash, another 48 hr
[6] = SF-268, read-out: IC50 (3H-TdR incorporation at 72 hr) SF-268 24 h, SF-268 human central nervous system tumor, 24 hr exposure to drug, wash, another 48 hr
[7] = read-out: IC50 (3H-TdR incorporation at 72 hr) H-460 24 h, H-460 human lung carcinoma, 24 hr exposure to drug, wash, another 48 hr
[8] = read-out: IC50 (3H-TdR incorporation at 72 hr) MCF-7 24 h, MCF-7 human breast carcinoma, 24 hr exposure to drug, wash, another 48 hr

CCCCC(C)(C)C(=O)OC[C@H]1OC[C@@H](n2ccc(N)nc2=O)O1.Cl [Compound 107, 2,2-DIMETHYLHEXANOIC ACID 4-(4-AMINO-2-OXO-2H-PYRI- MIDIN-1-YL)-1,3-DI- OXOLAN-2-YLMETHYL ESTER HYDROCHLORIDE]
Resistance Factor (CEM/dCK-): 2,042

CC(=O)OCC1OC2OC(C)(OC[C@H]3OC[C@@H](n4ccc(NC(=O)OCc5ccccc5)nc4=O)O3)OC2C(OC(C)=O)C1OC(C)=O (stereo partly shown) [Compound 148, Acetic acid 6-acetoxy-5-acetoxy-methyl-2-[4-(4-benzyl-oxycarbonylamino-2-ox-o-2H-pyrimidin-1-yl)-[1,3]di-oxolan-2-ylmeth-oxy]-2-methyl-tetra-hydro-[1,3]di-oxolo[4,5-b]py-ran-7-yl ester]
Factor (Resistance Factor = Ratio of dCK- on Wild-type CCRF-CEM) [1]: 4

CC(C(=O)OC[C@H]1OC[C@@H](n2ccc(N)nc2=O)O1)C(c1ccccc1)c1ccccc1 (stereo partly drawn) [Compound 157, (2S,4S)-(3″-DIPHENYL-2″-METHYL- PROPIOXYMETHYL)-4-CYTO- SIN-1′-YL-1,3-DI- OXOLANE]
Factor (Resistance Factor = Ratio of dCK- on Wild-type CCRF-CEM) [1]: > 8330

CCOC(OCC)(OC[C@H]1OC[C@@H](n2ccc(N)nc2=O)O1)c1ccccc1 [Compound 170, 4-AMINO-1-[2-(DIETHOXY-PHE- NYL-METHOXYMETHYL)-[1,3]DI- OXOLAN-4-YL]-1H-PYRI- MIDIN-2-ONE]
IC50 [1, 2]: 0.21 µM
IC50 [1, 3]: > 100 µM
IC50 [1, 4]: 0.49 µM
IC50 [1, 5]: 0.63 µM
IC50 [1, 6]: 1 µM
Resistance Factor = Ratio of dCK- on Wild-type CCRF-CEM [1]: >476

COC(OC)(OC)OC[C@H]1OC[C@@H](n2ccc(N)nc2=O)O1 [Compound 177, 4-AMINO-1-(2-TRI- METHOXYMETHOXYMETHYL-[1,3]DI- OXOLAN-4-YL)-1H-PYRI- MIDIN-2-ONE]
Resistance Factor = Ratio of dCK- on Wild-type CCRF-CEM [1]: > 1050

O=C(Nc1ccn([C@@H]2CO[C@H](COC(=O)OCc3ccc([N+](=O)[O-])cc3)O2)c(=O)n1)OCc1ccc([N+](=O)[O-])cc1 [Compound 181, CARBONIC ACID 4-NITRO-BENZYL ESTER 4-[4-(4-NITRO-BENZYL- OXYCARBONYLAMINO)-2-OX- O-2H-PYRIMIDIN-1-YL]-[1,3]DI- OXOLAN-2-YLMETHYL ESTER]
IC50 [1, 2]: 0.037 µM
IC50 [1, 3]: > 100 µM
IC50 [1, 4]: 0.49 µM
IC50 [1, 5]: 0.14 µM
IC50 [1, 6]: 0.17 µM
Resistance Factor = Ratio of dCK- on Wild-type CCRF-CEM [1]: >2700

Nc1ccn([C@@H]2CO[C@H](COC(=O)c3ccc(Cl)c(Cl)c3)O2)c(=O)n1 [Compound 187, 3,4-DICHLORO-BENZOIC ACID 4-(4-AMINO-2-OXO-2H-PYRI- MIDIN-1-YL)-[1,3]DI- OXOLAN-2-YL METHYL ESTER]
IC50 [1, 5]: 0.0014 µM
IC50 ([1]; read-out: IC50 (3H-TdR incorporation at 72 hr) CCRF-CEM 24 h, CCRF-CEM T-cell leukemia, 24 hr exposure to drug, wash, another 48 hr): 0.0016 µM
IC50 [1, 7]: 0.0011 µM
IC50 [1, 8]: 0.0051 µM

Nc1ccn([C@@H]2CO[C@H](COC(=O)c3ccc(C(F)(F)F)cc3)O2)c(=O)n1 [Compound 189, 4-TRIFLUOROMETHYL-BENZOIC ACID 4-(4-A- MINO-2-OXO-2H-PYRI- MIDIN-1-YL)-[1,3]DI- OXOLAN-2-YL METHYL ESTER]
IC50 [1, 4]: 0.0033 µM
IC50 [1, 5]: 0.0012 µM
IC50 [1, 7]: 0.00068 µM
IC50 [1, 8]: 0.0037 µM

Nc1ccn([C@@H]2CO[C@H](COC(=O)c3ccccc3F)O2)c(=O)n1 [Compound 190, 2-FLUORO-BENZOIC ACID 4-(4-AMINO-2-OXO-2H-PYRI- MIDIN-1-YL)-[1,3]DI- OXOLAN-2-YL METHYL ESTER]
IC50 [1, 3]: 9.8 µM
IC50 [1, 4]: 0.027 µM
IC50 [1, 7]: 0.0039 µM
IC50 [1, 8]: 0.016 µM

CC(C)(C)OC(=O)NCCCCCC(=O)Nc1ccn([C@@H]2CO[C@H](CO)O2)c(=O)n1 [Compound 193, {5-[1-(2-HYDROXYMETHYL-[1,3]DI- OXOLAN-4-YL)-2-OX- O-1,2-DIHYDRO-PYRI- MIDIN-4-YLCARBA- MOYL]-PENTYL}-CARBAMIC ACID TERT-BUTYL ESTER]
Resistance Factor = Ratio of dCK- on Wild-type CCRF-CEM [1]: > 1700

COc1ccc(C(OC)(OC)OC[C@H]2OC[C@@H](n3ccc(N)nc3=O)O2)cc1 [Compound 195, 4-AMINO-1-{2-[DI- METHOXY-(4-METHOXY-PHE- NYL)-METHOXYMETHYL]-[1,3]DI- OXOLAN-4-YL}-1#H!-PYRI- MIDIN-2-ONE]
Resistance Factor = Ratio of dCK- on Wild-type CCRF-CEM [1]: > 1560

CCOC(OCC)(OCC)OC[C@H]1OC[C@@H](n2ccc(N)nc2=O)O1 [Compound 199, 4-Amino-1-(2-tri-ethoxymethoxymethyl-[1,3]di-oxolan-4-yl)-1H-pyri-midin-2-one]
Resistance Factor = Ratio of dCK- on Wild-type CCRF-CEM [1]: > 10600

CC(=O)Oc1ccc(COC(=O)Nc2ccn([C@@H]3CO[C@H](COC(=O)OCc4ccc(OC(C)=O)cc4)O3)c(=O)n2)cc1 [Compound 202, Acetic acid 4-(1-{2-[4-(Acetyloxy)benzyloxycarbonyloxymethyl]-[1,3]dioxolan-4-yl}2-oxo-1,2-dihydropyrimidin-4-ylcarbamoyloxymethyl)-phenyl ester]
Resistance Factor = Ratio of dCK- on Wild-type CCRF-CEM [1]: > 1000

Nc1ccn([C@@H]2CO[C@H](COC(=O)c3ccc([N+](=O)[O-])cc3)O2)c(=O)n1 [Compound 204, 4-NITRO-BENZOIC ACID 4-(4-A- MINO-2-OXO-2H-PYRI- MIDIN-1-YL)-[1,3]DI- OXOLAN-2-YL METHYL ESTER]
IC50 [1, 2]: 0.012 µM
IC50 [1, 3]: 19 µM
IC50 [1, 4]: 0.0086 µM
IC50 [1, 5]: 0.015 µM
IC50 [1, 6]: 0.025 µM
Resistance Factor = Ratio of dCK- on Wild-type CCRF-CEM [1]: 1 600

Nc1ccn([C@@H]2CO[C@H](COC(=O)c3ccccc3Cc3ccccc3)O2)c(=O)n1 [Compound 220, BIPHENYL-2-CARBOXYLIC ACID 4-(4-AMINO-2-OXO-2H-PYRI- MIDIN-1-YL)-[1,3]DI- OXOLAN-2-YL METHYL ESTER]
Resistance Factor = Ratio of dCK- on Wild-type CCRF-CEM [1]: > 28600

Nc1ccn([C@@H]2CO[C@H](COC(=O)C3(c4ccccc4)CC3)O2)c(=O)n1 [Compound 223, 1-PHENYL-CYCLO- PROPANECARBOXYLIC ACID 4-(4-AMINO-2-OXO-2H-PYRI- MIDIN-1-YL)-[1,3]DI- OXOLAN-2-YL METHYL ESTER]
Resistance Factor = Ratio of dCK- on Wild-type CCRF-CEM [1]: > 1610

CC(C)(C(=O)OC[C@H]1OC[C@@H](n2ccc(N)nc2=O)O1)c1ccccc1[N+](=O)[O-].Cl [Compound 224, 2-METHYL-2-(2-NITRO-PHE- NYL)-PROPIONIC ACID 4-(4-AMINO-2-OXO-2H-PYRI- MIDIN-1-YL)-[1,3]DI- OXOLAN-2-YLMETHYL ESTER HYDROCHLORIDE SALT]
IC50 [1, 2]: 0.1 µM
IC50 [1, 4]: 6.9 µM
IC50 [1, 5]: 5.3 µM
IC50 [1, 6]: 21 µM
Resistance Factor = Ratio of dCK- on Wild-type CCRF-CEM [1]: > 1000

CCCCC[C@H]1CC[C@H](C(=O)OC[C@H]2OC[C@@H](n3ccc(N)nc3=O)O2)CC1 [Compound 240, 4-PENTYL-CYCLO- HEXANECARBOXYLIC ACID 4-(4-AMINO-2-OXO-2H-PYRI- MIDIN-1-YL)-[1,3]DI- OXOLAN-2-YL METHYL ESTER]
Resistance Factor = Ratio of dCK- on Wild-type CCRF-CEM [1]: ≧25 000

CC(CCCCCCc1ccccc1)C(=O)OC[C@H]1OC[C@@H](n2ccc(N)nc2=O)O1 (stereo partly shown) [Compound 245, 2-METHYL-8-PHENYL-OCTANOIC ACID 4-(4-AMINO-2-OXO-2H-PYRI- MIDIN-1-YL)-[1,3]DI- OXOLAN-2-YL METHYL ESTER]
Resistance Factor = Ratio of dCK- on Wild-type CCRF-CEM [1]: > 6800

CC(C)C[C@H](N)C(=O)Nc1ccn([C@@H]2CO[C@H](CO)O2)c(=O)n1 [Compound 257, 2-AMINO-4-METHYL-PENTANOIC ACID[1-(2-HYDROXY- METHYL-[1,3]DIOXO- LAN-4-yl)-2-OXO-1,2-DIHYDRO-PYRI- MIDIN-4-YL]-AMIDE]
Resistance Factor (CEM/dCK-): >19

CC(C)CCCCC(=O)Nc1ccn([C@@H]2CO[C@H](COC(=O)CCCCC(C)C)O2)c(=O)n1 [Compound 276, 6-METHYL-HEPTANOIC ACID 4-[4-(6-METHYL-HEPTANOYL- AMINO)-2-OXO-2H-PYRI- MIDIN-1-YL]-[1,3]DI- OXOLAN-2-YL METHYL ESTER]
IC50 ([1]; CCRF-CEM, read-out: IC50 in μM (3H-TdR incorporation at 72 hr) CCRF-CEM 24 h, CCRF-CEM T-cell leukemia, 24 h exposure to drug, wash, another 48 hr): 0.028 µM
IC50 ([1]; MCF7, read-out: IC50 in μM (3H-TdR incorporation at 72 hr) MCF-7 (72 h), MCF-7 human breast carcinoma, 72 h exposure): 0.0017 µM
IC50 ([1]; NCI-H460, read-out: IC50 in μM (3H-TdR incorporation at 72 hr) H-460 (72 h), H-460 human lung carcinoma, 72 h exposure): 0.025 µM
IC50 ([1]; SF-268, read-out: IC50 in μM (3H-TdR incorporation at 72 hr) SF-268 (72 h), SF-268 human central nervous system tumor, 72 h exposure): 0.018 µM
Factor (Resistance Factor = Ratio of dCK- on Wild-type CCRF-CEM) [1]: 957

CC(C)(C)C(=O)OC[C@H]1OC[C@@H](n2ccc(N)nc2=O)O1 [Compound 279, 2,2-DIMETHYL-PROPIONIC ACID 4-(4-AMINO-2-OXO-2H-PYRI- MIDIN-1-YL)-[1,3]DI- OXOLAN-2-YL METHYL ESTER]
Factor (Resistance Factor = Ratio of dCK- on Wild-type CCRF-CEM) [1]: 1854 and >1205

CC(C)[C@H](N)C(=O)Nc1ccn([C@@H]2CO[C@H](CO)O2)c(=O)n1.O=C(O)C(F)(F)F [Compound 280, 2-Amino-N-[1-(2-hydroxy-methyl-[1,3]dioxo-lan-4-yl)-2-oxo-1,2-di-hydro-pyrimidin-4-yl]-3-meth-yl-butyramide; trifluoroacetic acid salt]
Factor (Resistance Factor = Ratio of dCK- on Wild-type CCRF-CEM) [1]: >53
